According to patent publication US11613547B2 (priority 2019, dated 2023):
“Also recorded” adds a separate entry of the source.

Legend:
Type in all cases: cell-based
hMOR [1] = biological target: T1, hMOR (Homo sapiens, UniProt P35372); experiment: cell-based; details: for Emax: HEK-293T, read-out: Gi Emax hMOR; for EC50: read-out: Gi EC50 hMOR
T1 construct: expressed in transfected cells; host or cells: HEK 293T (ATCC CRL-11268), transient

hMOR [2] = biological target: T1, hMOR; experiment: Tango β-arrestin recruitment assay, hMOR; details: Tango
hKOR [3] = biological target: T2, hKOR (Homo sapiens, UniProt P41145); experiment: cAMP inhibition assay (GloSensor, HEK 293T), hKOR; details: for Emax: HEK-293T, read-out: Gi Emax hKOR; for Bias factor toward G protein, hKOR: cAMP inhibition vs Tango, against U50,488H as control
T2 construct: expressed in transfected cells; host or cells: HEK 293T (ATCC CRL-11268), transient
T2 sequence (P41145 whole entry): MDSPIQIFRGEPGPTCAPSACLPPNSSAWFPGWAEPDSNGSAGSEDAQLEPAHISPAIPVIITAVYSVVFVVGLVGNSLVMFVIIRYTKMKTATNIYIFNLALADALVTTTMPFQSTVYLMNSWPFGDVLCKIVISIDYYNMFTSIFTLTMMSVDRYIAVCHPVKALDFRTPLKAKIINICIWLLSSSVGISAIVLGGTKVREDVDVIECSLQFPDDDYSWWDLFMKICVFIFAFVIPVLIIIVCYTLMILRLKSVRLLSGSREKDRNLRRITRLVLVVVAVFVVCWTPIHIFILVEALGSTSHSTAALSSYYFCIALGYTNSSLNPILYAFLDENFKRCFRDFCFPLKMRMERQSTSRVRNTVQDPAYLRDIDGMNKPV

hKOR [4] = biological target: T2, hKOR; experiment: Tango β-arrestin recruitment assay, hKOR

T1 sequence (P35372 whole entry): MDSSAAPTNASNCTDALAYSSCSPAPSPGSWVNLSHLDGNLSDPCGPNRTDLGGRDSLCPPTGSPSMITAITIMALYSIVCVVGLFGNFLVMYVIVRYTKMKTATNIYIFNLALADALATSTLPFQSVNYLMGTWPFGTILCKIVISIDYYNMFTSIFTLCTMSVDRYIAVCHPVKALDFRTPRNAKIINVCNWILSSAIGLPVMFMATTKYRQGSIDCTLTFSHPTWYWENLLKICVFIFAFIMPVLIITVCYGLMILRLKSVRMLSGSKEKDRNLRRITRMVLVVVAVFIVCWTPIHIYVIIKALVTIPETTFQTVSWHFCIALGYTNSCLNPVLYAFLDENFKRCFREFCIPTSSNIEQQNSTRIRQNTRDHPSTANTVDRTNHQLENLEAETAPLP

Structure (SMILES) | Gi pEC50±SEM hMOR (hMOR [1]) | Emax (hMOR [1]) | EC50 (hMOR [1]) | arrestin recruitment at hMOR (hMOR [2]) | Emax (hKOR [3]) | Gi pEC50±SEM hKOR (hKOR [3]; cAMP inhibition) | Bias factor toward G protein, hKOR (hKOR [3]) | Emax (hKOR [4]) | Arrestin pEC50±SEM hKOR (hKOR [4]; Tango, WT-hKOR) | EC50 (hKOR [3]; cAMP inhibition, read-out: Gi EC50 hKOR) | EC50 (hKOR [4]; Tango, WT-hKOR)
O=C(N[C@@H]1CC[C@H]2[C@H]3Cc4ccc(O)c5c4[C@@]2(CCN3CC2CC2)[C@H]1O5)c1cccc(CO)c1 [MP1210, N-((4R,4aR,7R,7aR,12bS)-3-(cyclopropylmethyl)-9-hydroxy-2,3,4,4a,5,6,7,7a-octahydro-1H-4,12-methano[1]benzofuro[3,2-e]isoquinolin-7-yl)-3-(hydroxymethyl)benzamide] | 9.81±0.05 | 94.6 ± 0.98% | 150 pM | null arrestin recruitment; also recorded: no arrestin recruitment was observed | 101 ± 1.1% | 10.6±0.05 | 1.2 | 63 ± 3.3% | 8.94±0.17 | – | –
NCc1ccc(C(=O)N[C@@H]2CC[C@H]3[C@H]4Cc5ccc(O)c6c5[C@@]3(CCN4CC3CC3)[C@H]2O6)cc1 [MP1209, 4-(aminomethyl)-N-((4R,4aR,7R,7aR,12bS)-3-(cyclopropylmethyl)-9-hydroxy-2,3,4,4a,5,6,7,7a-octahydro-1H-4,12-methano[1]benzofuro[3,2-e]isoquinolin-7-yl)benzamide] | 9.61±0.04 | 98.5 ± 0.96% | 250 pM | null arrestin recruitment; also recorded: no arrestin recruitment was observed | 100 ± 1.23% | 10.6±0.05 | 0.6 | 67 ± 3% | 9.43±0.19 | 24 pM | 370 pM
